{"source": "patent US20250057959A1", "about": "“PHOSPHANE GOLD(I)-N-HETEROCYCLIC CARBENE COMPLEXES FOR TREATING CANCER” (KING FAHD UNIVERSITY OF PETROLEUM AND MINERALS, priority 2023, published 2025)", "format_in_all_cases": "cell-based, human", "key": {"[1]": {"test_system": "SKOV3 cells", "experiment": "MTT cell viability assay, SKOV3", "settings": "72 hours treatment", "source_text": "(§1) Human epithelial ovarian cancer A2780 cell line and its cisplatin-resistant clone A2780cis were obtained from Sigma-Aldrich (Milano, Italy). SKOV3 (HTB-77) cells were from the American Type Culture Collection (ATCC). The two cell lines were selected to reflect the two different stages of OvCa and different sensitivity to cisplatin. A2780 cell lines were derived from the ovarian tumor tissue of an untreated patient, while SKOV3 was from the ascitic fluids (after metastasis). Cells were authenticated in the laboratory using PowerPlex 16 HS system (Promega) and GeneMapper ID version 3.2.1 to identify DNA short tandem repeats. Cell lines were cultured in RPMI-1640 medium containing 10% fetal bovine serum (FBS) (Gibco, Thermo Fisher Scientific, U.S.A), 1% (v/v) of penicillin (10,000 units/mL)-streptomycin (10 mg/mL), and 1% (v/v) L-glutamine (200 mM) (all from Sigma- Aldrich) at 37° C. in a 5% CO2 fully humidified atmosphere. A2780cis cells were continuously exposed to 1 μM cisplatin to maintain cisplatin resistance. Adipose-derived stem cells (ADSCs) were purchased from Lonza and maintained in mesenchymal-stem-cell growth medium Bulletkit MSCGM (Lonza, Verviers, Belgium).\n(§2) 4.0×10^3/mL A2780, A2780cis, and SKOV3 cells were seeded in 96-well microplates in 100 μL of culture medium. Cells were allowed to adhere for 24 hours and then were treated in triplicate with increasing concentrations of gold compounds (0-1 μM). Cisplatin was included as a reference drug. Cell viability was evaluated using 3-(4,5-dimethylthiazol-2-yl)-2,5-diphenyltetrazolium bromide (MTT) assay (Sigma-Aldrich) after 72 hours of treatment. Half maximal inhibitory concentrations (IC50) were calculated using the CalcuSyn software version 2 (Biosoft, Ferguson, MO, USA). Fold resistance was calculated as the ratio of the IC50 of the A2780cis to that of the parental cell line A2780."}, "[2]": {"test_system": "A2780 and A2780cis cells", "experiment": "DNA double-strand breaks, γ-H2AX western blot", "experimental": "Whole-cell lysates were prepared using cold RIPA buffer [150 mM NaCl, 50 mM Tris-HCl (pH 8), 0.1% SDS, 1% Igepal, and 0.5% desoxycholate sodium] containing a protease inhibitor cocktail (Roche Diagnostics S.p.a., Milan, Italy), phosphatase inhibitors 1 mM Na3VO4 and 1 mM NaF (Sigma-Aldrich). Protein concentrations were determined using the BioRad protein assay (Bio-Rad Laboratories, Inc., CA, USA). Equal amounts of proteins were mixed with Laemmli buffer, separated in 4-20% SDS-PAGE (Criterion Precast Gel, BioRad), and blotted onto a nitrocellulose membrane (Amersham, GE Healthcare). Membrane strips were blocked with EveryBilot blocking buffer (Bio-Rad) and incubated at 4° C. overnight with primary antibodies probed with the appropriate antibodies (Table 2) and developed using Immobilon Western chemioluminescent HRP substrate. Images were acquired using a ChemiDoc XRS system (Bio-Rad)."}, "[3]": {"test_system": "A2780", "experiment": "MTT cell viability assay, A2780", "source_text": "as §1, §2"}}, "note": "“Also recorded” adds a separate entry of the source.", "data": [{"molecule": "CC(C)c1cccc(C(C)C)c1-n1ccn(-c2c(C(C)C)cccc2C(C)C)[c]1=[Au+][PH](C1CCCCC1)(C1CCCCC1)C1CCCCC1.F[P-](F)(F)(F)(F)F", "note": "[Complex 6, [Au(IPr)(C18H33P)] PF6]", "values": [{"measurement": "IC50", "setting": "[1]", "result": 580, "unit": "nM"}, {"measurement": "DNA double-strand breaks (γH2AX)", "setting": "[2]", "result": "induced DNA-DSBs"}, {"measurement": "IC50", "setting": "[3]; 72 hours treatment, MTT", "result": "140 ± 10", "unit": "nM"}, {"measurement": "Cytotoxic activity ranking within the series", "setting": "[3]; A2780 and A2780cis, Table 8", "result": "most potent"}, {"measurement": "Activity compared with cisplatin or auranofin in A2780 cells", "setting": "[3]; comparison of IC50, Table 8", "result": "more active than cisplatin; also recorded: more active than auranofin"}]}]}
